Assay results as given in ChEMBL document CHEMBL3352249, “Novel indolizine derivatives with unprecedented inhibitory activity on human farnesyltransferase” (Bioorg Med Chem Lett, 2014).

Assays:
[1] = target: T1, Protein farnesyltransferase (Homo sapiens, UniProt P49354+P49356); assay: Inhibition of human recombinant farnesyltransferase using Dansyl-GCVLS peptide as substrate after 15 mins by fluorescence assay
[2] = target: T1, Protein farnesyltransferase; assay: Inhibition of human recombinant farnesyltransferase using Dansyl-GCVLS peptide as substrate at 100 uM after 15 mins by fluorescence assay

| SMILES | IC50 [1] | inhibition [2] |
| --- | --- | --- |
| C#CCNC(=O)c1cc(C(=O)c2ccccc2)n2ccc(C)cc12 | 15.3 µM | 100% |
| C#CCCOC(=O)c1cc(C(=O)c2ccc(Br)cc2)n2c(C)cccc12 | 2.2 µM | 100% |
| C#CCNC(=O)c1cc(C(=O)c2ccccc2)n2ccccc12 | 22.1 µM | 100% |
| Cc1cccc2c(C(=O)O)cc(C(=O)c3ccc(Br)cc3)n12 | 14.8 µM | 91% |
| C#CCOC(=O)c1cc(C(=O)c2ccccc2)n2ccc(C)cc12 |  | 72% |
| C#CCCOC(=O)c1cc(C(=O)c2ccccc2)n2ccc(C)cc12 |  | 0% |
| C#CCCOC(=O)c1cc(C(=O)c2ccc(Cl)cc2)n2ccc(C)cc12 |  | 0% |
| Cc1ccn2c(C(=O)c3ccc(Cl)cc3)cc(C(=O)O)c2c1 |  | 0% |
| C#CCCOC(=O)c1cc(C(=O)c2ccc(Cl)cc2)n2c(C)cccc12 | 20.7 µM | 97% |
| C#CCCOC(=O)c1cc(C(=O)c2ccc(Br)cc2)n2ccccc12 |  | 0% |
| O=C(O)c1cc(C(=O)c2ccccc2)n2ccccc12 | 19.7 µM | 100% |
| O=C(O)c1cc(C(=O)c2ccc(Br)cc2)n2ccccc12 | 19.4 µM | 100% |
| C#CCCOC(=O)c1cc(C(=O)c2ccccc2)n2c(C)cccc12 | 7.3 µM | 94% |
| Cc1cccc2c(C(=O)O)cc(C(=O)c3ccc(Cl)cc3)n12 | 32.2 µM | 79% |
| C#CCCOC(=O)c1cc(C(=O)c2ccc(Cl)cc2)n2ccccc12 |  | 0% |
| C#CCOC(=O)c1cc(C(=O)c2ccc(Cl)cc2)n2c(C)cccc12 | 2.6 µM | 100% |
| C#CCNC(=O)c1cc(C(=O)c2ccccc2)n2c(C)cccc12 | 57.8 µM | 74% |

| SMILES | IC50 [1] | inhibition [2] |
| --- | --- | --- |
| C#CCNC(=O)c1cc(C(=O)c2ccc(Cl)cc2)n2c(C)cccc12 | 14.9 µM | 97% |
| Cc1ccn2c(C(=O)c3ccc(Br)cc3)cc(C(=O)O)c2c1 |  | 0% |
| C#CCOC(=O)c1cc(C(=O)c2ccccc2)n2c(C)cccc12 | 20.8 µM | 93% |
| CCCCCCCCCCCCCC/C(C(=O)O)=C(\C)C(=O)O [CHAETOMELLIC ACID A] | 0.18 µM | 100% |
| Cc1cccc2c(C(=O)O)cc(C(=O)c3ccccc3)n12 |  | 48% |
| C#CCOC(=O)c1cc(C(=O)c2ccccc2)n2ccccc12 | 14.4 µM | 100% |
| C#CCOC(=O)c1cc(C(=O)c2ccc(Br)cc2)n2c(C)cccc12 | 1.3 µM | 100% |
| C#CCCOC(=O)c1cc(C(=O)c2ccc(Br)cc2)n2ccc(C)cc12 |  | 68% |
| Cc1ccn2c(C(=O)c3ccccc3)cc(C(=O)O)c2c1 | 72.3 µM | 100% |
| C#CCNC(=O)c1cc(C(=O)c2ccc(Cl)cc2)n2ccccc12 | 5.9 µM | 94% |
| C#CCOC(=O)c1cc(C(=O)c2ccc(Cl)cc2)n2ccc(C)cc12 |  | 0% |
| C#CCCOC(=O)c1cc(C(=O)c2ccccc2)n2ccccc12 |  | 61% |
| C#CCNC(=O)c1cc(C(=O)c2ccc(Br)cc2)n2c(C)cccc12 | 11.4 µM | 90% |
| C#CCNC(=O)c1cc(C(=O)c2ccc(Br)cc2)n2ccccc12 | 4.4 µM | 100% |
| O=C(O)c1cc(C(=O)c2ccc(Cl)cc2)n2ccccc12 | 20.7 µM | 100% |
| C#CCOC(=O)c1cc(C(=O)c2ccc(Cl)cc2)n2ccccc12 |  | 54% |
